From ChEMBL document CHEMBL1201862, “PubChem BioAssay data set” (2004)
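Five concentrations, 48 hours, 96-well plates. Abbreviation: GI50, concentration required for 50% inhibition of growth.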 Activity calls are given as the source filed them. No stated cut-off is given here; in the data, active = GI50 up to about 1.1 µM and inactive = higher.

How the values were obtained:
Assay in all cases: growth of human tumour cells (NCI), 48 h
LXFL 529 = system: LXFL 529
XF498 = system: XF498
KM-20L2 = system: KM-20L2
DMS-273 = system: DMS-273
DMS-114 = system: DMS-114
M19-MEL = system: M19-MEL
HOP-18 = system: HOP-18
SNB-78 = system: SNB-78
RXF 631 = system: RXF 631

CN(C)c1ccc(/C=c2\sc3nc4ccccc4n3c2=O)cc1 was tested, and the GI50 (LXFL 529) was > 100 µM (inactive), the GI50 (XF498) was > 100 µM (inactive) and the GI50 (KM-20L2) was > 100 µM (inactive). For the same compound, the GI50 (DMS-273) was > 100 µM (inactive), the GI50 (DMS-114) was > 100 µM (inactive) and the GI50 (M19-MEL) was > 100 µM (inactive). The GI50 (HOP-18) was > 100 µM (inactive), the GI50 (SNB-78) was > 100 µM (inactive) and the GI50 (RXF 631) was > 100 µM (inactive).
With COC(=O)[C@@H]1C(=O)O[C@@H](c2ccc3c(c2)OCO3)[C@@H]1C(=O)OC.COC(=O)[C@H]1C(=O)O[C@@H](c2ccc3c(c2)OCO3)[C@@H]1C(=O)OC the GI50 (LXFL 529) was > 100 µM (inactive), the GI50 (KM-20L2) was > 100 µM (inactive) and the GI50 (DMS-273) was > 100 µM (inactive). The GI50 (DMS-114) was > 100 µM (inactive), the GI50 (M19-MEL) was > 100 µM (inactive) and the GI50 (SNB-78) was > 100 µM (inactive). The GI50 (RXF 631) was > 100 µM (inactive).
For Cc1cc(C)nc(NS(=O)(=O)c2ccc(Nc3c4ccc(Cl)cc4nc4c(C(=O)Nc5ccc(S(N)(=O)=O)cc5)cccc34)cc2)n1, the GI50 (LXFL 529) was 23.8 µM (inactive), the GI50 (XF498) was 18.4 µM (inactive) and the GI50 (KM-20L2) was 18.6 µM (inactive). The GI50 (DMS-114) was 22.8 µM (inactive), the GI50 (M19-MEL) was 25.4 µM (inactive) and the GI50 (SNB-78) was 49.9 µM (inactive). The GI50 (RXF 631) was 18.2 µM (inactive).
In the case of OCc1ccc(-c2ccc(-c3ccc(CO)s3)o2)s1, the GI50 (LXFL 529) is reported as 0.0158 µM (active), the GI50 (XF498) is reported as 0.0562 µM (active) and the GI50 (KM-20L2) is reported as 0.0405 µM (active). The GI50 (DMS-273) was 1.13 µM (inactive), the GI50 (DMS-114) was 13.4 µM (inactive) and the GI50 (M19-MEL) was 41.7 µM (inactive). For the same compound, the GI50 (HOP-18) was 0.341 µM (active).
For C/C=C1/C=CC2c3[nH]c4ccccc4c3CCN2C1 (configuration not stated), the GI50 (LXFL 529) was > 400 µM (inactive), the GI50 (XF498) was > 400 µM (inactive) and the GI50 (KM-20L2) was > 400 µM (inactive). The GI50 (DMS-273) was > 400 µM (inactive), the GI50 (DMS-114) was 296 µM (inactive) and the GI50 (M19-MEL) was > 400 µM (inactive). For the same compound, the GI50 (HOP-18) was 7.11 µM (inactive) and the GI50 (RXF 631) was > 400 µM (inactive).
For CCN(CC)CC(C(C)=O)C(c1ccccc1)c1c(O)c2ccccc2oc1=O (configuration not stated), the GI50 (LXFL 529) was > 100 µM (inactive), the GI50 (XF498) was > 100 µM (inactive) and the GI50 (KM-20L2) was > 100 µM (inactive). The GI50 (DMS-273) was > 100 µM (inactive), the GI50 (DMS-114) was > 100 µM (inactive) and the GI50 (M19-MEL) was > 100 µM (inactive). For the same compound, the GI50 (HOP-18) was > 100 µM (inactive) and the GI50 (SNB-78) was > 100 µM (inactive).
With O=C1OC(/C=C/c2ccccc2)C(=O)C1=O (configuration not stated) the GI50 (LXFL 529) was > 100 µM (inactive), the GI50 (XF498) was > 100 µM (inactive) and the GI50 (KM-20L2) was > 100 µM (inactive). The GI50 (DMS-273) was > 100 µM (inactive), the GI50 (M19-MEL) was > 100 µM (inactive) and the GI50 (HOP-18) was 23.8 µM (inactive).
With COc1ccc(NC(=O)CC/C(CC(=O)c2ccco2)=N/Nc2ccc([N+](=O)[O-])cc2[N+](=O)[O-])cc1 the GI50 (LXFL 529) was 43.2 µM (inactive), the GI50 (XF498) was 22.8 µM (inactive) and the GI50 (KM-20L2) was > 100 µM (inactive). The GI50 (DMS-273) was 57.7 µM (inactive), the GI50 (DMS-114) was 23.6 µM (inactive) and the GI50 (M19-MEL) was 58.1 µM (inactive). The GI50 (HOP-18) was 26.2 µM (inactive), the GI50 (SNB-78) was > 100 µM (inactive) and the GI50 (RXF 631) was 38.8 µM (inactive).
In the case of COCCCCCC(=O)CP(=O)(OC)OC, the GI50 (LXFL 529) is reported as > 100 µM (inactive), the GI50 (XF498) is reported as > 79.6 µM (inactive) and the GI50 (KM-20L2) is reported as > 100 µM (inactive). For the same compound, the GI50 (DMS-273) was > 100 µM (inactive), the GI50 (DMS-114) was > 100 µM (inactive) and the GI50 (M19-MEL) was > 100 µM (inactive). The GI50 (HOP-18) was > 100 µM (inactive) and the GI50 (SNB-78) was > 100 µM (inactive).
In the case of COc1ccc(C2NC(c3ccc(OC)cc3)C(C)C(=O)C2C)cc1 (configuration not stated), the GI50 (LXFL 529) is reported as > 100 µM (inactive), the GI50 (KM-20L2) is reported as > 100 µM (inactive) and the GI50 (DMS-273) is reported as > 100 µM (inactive). The GI50 (DMS-114) was 64.4 µM (inactive), the GI50 (M19-MEL) was > 100 µM (inactive) and the GI50 (HOP-18) was > 100 µM (inactive). For the same compound, the GI50 (SNB-78) was > 100 µM (inactive) and the GI50 (RXF 631) was > 100 µM (inactive).
For c1ccc(/N=C2\c3ccccc3C3=NCCCN32)cc1, the GI50 (LXFL 529) was 43.3 µM (inactive), the GI50 (XF498) was 85.5 µM (inactive) and the GI50 (KM-20L2) was 59.2 µM (inactive). For the same compound, the GI50 (DMS-273) was 36.3 µM (inactive), the GI50 (DMS-114) was 28.2 µM (inactive) and the GI50 (M19-MEL) was 53.6 µM (inactive). For the same compound, the GI50 (SNB-78) was > 100 µM (inactive) and the GI50 (RXF 631) was 85.5 µM (inactive).
In the case of CCCCCCCCCCCCCCCCOC(=O)C(C(=O)OCCCCCCCCCCCCCCCC)[N+](C)(C)CCOC(C)=O, the GI50 (LXFL 529) is reported as 16.1 µM (inactive), the GI50 (KM-20L2) is reported as 18.6 µM (inactive) and the GI50 (DMS-273) is reported as 9.2 µM (inactive). For the same compound, the GI50 (DMS-114) was 17.9 µM (inactive), the GI50 (M19-MEL) was 13.9 µM (inactive) and the GI50 (HOP-18) was 16.7 µM (inactive). The GI50 (SNB-78) was 19.9 µM (inactive) and the GI50 (RXF 631) was 12.5 µM (inactive).
With CC1(C)CCC(Sc2ccccc2)O1 (configuration not stated) the GI50 (LXFL 529) was > 100 µM (inactive), the GI50 (XF498) was > 100 µM (inactive) and the GI50 (KM-20L2) was > 100 µM (inactive). For the same compound, the GI50 (DMS-273) was > 100 µM (inactive), the GI50 (DMS-114) was > 100 µM (inactive) and the GI50 (M19-MEL) was > 100 µM (inactive). The GI50 (SNB-78) was > 100 µM (inactive).
With CCCCC1(OC(=O)CCC(=O)O)CCC2(CCC(C)C(C/C=C(C)/C=C/C(O)C(C)/C=C/C(=O)O)O2)OC1CC/C(C)=C/C(=O)O (configuration not stated) the GI50 (LXFL 529) was 1.8 µM (inactive), the GI50 (XF498) was 2.03 µM (inactive) and the GI50 (KM-20L2) was 10.9 µM (inactive). The GI50 (DMS-273) was 5.94 µM (inactive), the GI50 (DMS-114) was 2.45 µM (inactive) and the GI50 (M19-MEL) was 2.84 µM (inactive). The GI50 (HOP-18) was 4.58 µM (inactive), the GI50 (SNB-78) was 2.55 µM (inactive) and the GI50 (RXF 631) was 1.93 µM (inactive).
In the case of Cn1nc(-c2ccccc2)c2c(/C=C/c3ccc(F)cc3)onc2c1=O, the GI50 (LXFL 529) is reported as > 100 µM (inactive), the GI50 (XF498) is reported as 14.8 µM (inactive) and the GI50 (KM-20L2) is reported as > 100 µM (inactive). The GI50 (DMS-273) was > 100 µM (inactive), the GI50 (M19-MEL) was > 100 µM (inactive) and the GI50 (HOP-18) was 11.3 µM (inactive).
In the case of Nc1ccccc1N, the GI50 (LXFL 529) is reported as > 100 µM (inactive), the GI50 (DMS-273) is reported as > 100 µM (inactive) and the GI50 (M19-MEL) is reported as > 100 µM (inactive). For the same compound, the GI50 (HOP-18) was > 100 µM (inactive).
With CCSC1(SCC)CC(Cc2ccc(OC)cc2)N(/C=N/C(C)(C)C)C1 (configuration not stated) the GI50 (LXFL 529) was 25.3 µM (inactive), the GI50 (XF498) was 18.1 µM (inactive) and the GI50 (KM-20L2) was 12.9 µM (inactive). For the same compound, the GI50 (DMS-273) was 37.4 µM (inactive), the GI50 (DMS-114) was 20.1 µM (inactive) and the GI50 (M19-MEL) was 29 µM (inactive). For the same compound, the GI50 (HOP-18) was 41.1 µM (inactive) and the GI50 (SNB-78) was 31.8 µM (inactive).
With CCn1cc(/C=C/C(C)c2cn(CC)c(=O)[nH]c2=O)c(=O)[nH]c1=O (configuration not stated) the GI50 (LXFL 529) was > 100 µM (inactive), the GI50 (KM-20L2) was > 100 µM (inactive) and the GI50 (DMS-273) was > 100 µM (inactive). For the same compound, the GI50 (DMS-114) was > 100 µM (inactive), the GI50 (M19-MEL) was > 100 µM (inactive) and the GI50 (HOP-18) was > 100 µM (inactive). The GI50 (RXF 631) was > 100 µM (inactive).
With CCC(C)c1cccc(C)c1NC(=O)C(=O)Cc1nc2ccccc2s1 (configuration not stated) the GI50 (LXFL 529) was > 100 µM (inactive), the GI50 (XF498) was > 100 µM (inactive) and the GI50 (KM-20L2) was > 100 µM (inactive). The GI50 (DMS-273) was > 100 µM (inactive), the GI50 (DMS-114) was > 100 µM (inactive) and the GI50 (M19-MEL) was > 100 µM (inactive). The GI50 (HOP-18) was > 100 µM (inactive) and the GI50 (SNB-78) was > 100 µM (inactive).
